This is an account of results in PMC10504751, “Chalcone/1,3,4-Oxadiazole/Benzimidazole hybrids as novel anti-proliferative agents inducing apoptosis and inhibiting EGFR & BRAFV^600E” (BMC Chemistry, 2023).

SMILES strings stand for the structures. Several values for one entry are separate records, joined by “and”; a condition that tells them apart may be missing. Identical values can stand only once.

Experiment [1] concerns melanoma LOX-IMVI cell line. In words: Propidium iodide anti-proliferative assay in LOX-IMVI. As to conditions: for IC50: Homo sapiens, melanoma LOX-IMVI, 48 h incubation; for fold more selective towards LOX-IMVI cell line: LOX-IMVI vs MCF-10 A. It counts as cell-based, human. On the procedure:
Consequently, the half-maximal inhibitory concentration (IC50) of these compounds was determined in LOX-IMVI cell line using propidium iodide (PI)^31, 32 with Staurosporine (broad spectrum protein kinase inhibitor) as a reference.
Cells whose cell membranes are damaged or have changed permeability are counted as dead ones. […] The medium was removed; the compounds were added to the plates at 10 µM concentrations (in 0.1% DMSO) in triplicates, followed by incubation for 48 h. DMSO (0.1%) was used as control. After incubation, medium was removed followed by the addition of PI (25 µl, 50µg/mL in water/medium) to each well of the plates. At -80 °C, the plates were allowed to freeze for 24 h, followed by thawing at 25 °C. A fluorometer (Polar-Star BMG Tech) was used to record the readings at excitation and emission wavelengths of 530 and 620 nm for each well. The percentage cytotoxicity of compounds was calculated using the following formula:
Where ATC= Absorbance of treated cells and AC= Absorbance of control.

Experiment [2] deals with Caspase-8 in MCF-7 breast cancer cells. In words: Caspase-8 assay. It counts as cell-based, human. As to conditions: for Caspase-8 Fold change: MCF-7, vs untreated control; for Caspase-8 Conc: MCF-7 breast cancer cells.
Experiment [3] concerns Caspase-9 in MCF-7 breast cancer cells. In words: Caspase-9 assay. It is filed as cell-based, human. As to conditions: for Caspase-9 Fold change: MCF-7, vs untreated control; for Caspase-9 Conc: MCF-7 breast cancer cells.
Experiment [4] concerns Cytochrome C in MCF-7 human breast cancer cell line. The experiment can be described thus: Cytochrome C assay. As to conditions: for Cytochrome C Fold change: MCF-7, vs untreated control; for Cytochrome C Conc: MCF-7 breast cancer cells. It counts as cell-based.
Experiment [5] relates to Caspase-3 in MCF-7 breast cancer cells. In words: Caspase-3 assay. As to conditions: for Caspase-3 Fold change: MCF-7, vs untreated control; for Caspase-3 Conc: MCF-7 breast cancer cells.
Protocol: All reagents were allowed to reach room temperature before use. All liquid reagents were gently mixed before use. The number of 8-well strips needed for the assay was determined. These were inserted into the frame(s) for current use. A total of 100 µL of the Standard Diluent Buffer was added to the zero standard wells. Well(s) reserved for chromogen blank were left empty. A total of 100 µL of standards and controls or diluted samples was added to the appropriate microtiter wells. The sample dilution chosen was optimized for each experimental system. The side of the plate was gently tapped on to
mix. Wells were covered with a plate cover and incubated for 2 h at room temperature. The solution was thoroughly aspirated or decanted from the wells and the liquid was discarded; wells were washed four times. […] The side of the plate was gently tapped on to mix. The plate was covered with a plate cover and incubated for 1h at room temperature. The solution was thoroughly aspirated or decanted from wells and the liquid was discarded; wells were washed four times. A total of 100 µL Anti-Rabbit IgG HRP Working Solution was added to each well except the chromogen blank(s). The working dilution was prepared as described in Preparing IgG HRP. Wells were covered with the plate cover and incubated for 30 min at room temperature. The solution was thoroughly aspirated or decanted from the wells and the liquid was discarded. Wells were washed four times. A total of 100 µL of Stabilized Chromogen was added to each well. The liquid in the wells began to turn blue. It was incubated for 30 min at room temperature and in the dark. The incubation time for chromogen substrate was determined by the microtiter plate reader used. Many plate readers have the capacity to record a maximum optical density (O.D.) of 2.0. The O.D. values were monitored, and the substrate reaction was stopped before the O.D. of the positive wells exceeds the limits of the instrument. The O.D. values at 450 nm could only be read after the Stop Solution had been added to each well. A total of 100 µL of Stop Solution was added to each well. The side of the plate was gently tapped to mix. The solution in the wells changed from blue to yellow. The absorbance of each well was read at 450 nm, having blanked the plate reader against a chromogen blank composed of 100 µL each of Stabilized Chromogen and Stop Solution. The plate was read within 2 h after adding the Stop Solution. A curve fitting software was used to generate the standard curve.
The concentrations for unknown samples and controls from the standard curve were read. Value(s) obtained for sample(s) by the appropriate dilution factor were multiplied to correct for the dilution in step 3.
A further experiment deals with BAX in MCF-7. In words: BAX activation assay. As to conditions: for BAX Conc: MCF-7; for BAX Fold change: MCF-7, vs untreated control.
For experiment [6], the system named is Panc-1, A-549, MCF-7 and HT-29. In words: Propidium iodide anti-proliferative assay, four cell lines together. It counts as cell-based. As to conditions: Homo sapiens; range over Panc-1, A-549, MCF-7, HT-29; read-out: IC50 range on the four tested cell lines. On the procedure: The propidium iodide (PI) tests^31, 32 were further used for assessment of the IC50 of all synthesized compounds and compared to Doxorubicin as a positive control against four cancer cell lines; pancreatic cancer cell line (Panc-1), epithelial line cancer cell (A-549), breast cancer cell line (MCF-7), and colon cancer cell line (HT-29).
Using the propidium iodide fluorescence assay with doxorubicin as the reference drug, IC50 of the 24 compounds 7a-x, was carried out according to a previously reported procedure^31, 32 against a panel of four human cancer cell lines; epithelial cancer cell line (A-549), breast cancer cell line (MCF-7), colon cancer cell line (HT-29) and pancreas cancer cell line (Panc-1). Compounds 7a-x were incubated with cancer cells for 2 days at different concentrations. See Appendix A.
To explore the antiproliferative potential of compounds propidium iodide fluorescence assay was performed using different cell lines (melanoma cancer cell line LOX-IMVI, pancreatic cancer cell line (Panc-1), epithelial line cancer cell (A-549), breast cancer cell line (MCF-7), and colon cancer cell line (HT-29). To calculate the total nuclear DNA, a fluorescent dye (propidium iodide, PI) is used which can attach to the DNA,^9,^10 thus offering a quick and precise technique. PI cannot pass through the cell membrane and its signal intensity can be considered as directly proportional to the quantity of cellular DNA. Cells whose cell membranes are damaged or have changed permeability are counted as dead ones. The assay was performed by seeding the cells of different cancer cell lines at a density of 3000-7500 cells/well (in 200µl medium) in culture plates followed by incubation for 24h at 37 °C in humidified 5% CO2/95% air atmospheric conditions. […] A fluorometer (Polar-Star BMG Tech) was used to record the readings at excitation and emission wavelengths of 530 and 620 nm for each well. The percentage cytotoxicity of compounds was calculated using the following formula:
Where ATC= Absorbance of treated cells and AC= Absorbance of control. […]

The subject of experiment [7] is MCF-7 cells. In words: Cell cycle analysis. As to conditions: MCF-7, IC50 (0.95 µM), 24 h. It is filed as cell-based, human. The source says: From the previous results, it was concluded that compound 7k might arrest cells at G1/S and prevent it from entering G2/M phase as indicated by decreased percentage of accumulation of cells in G2/M phase compared to control.

In experiment [8] the test system is MCF-7 cells. In words: Annexin V-FITC/PI apoptosis detection. It is filed as cell-based, human. As to conditions: MCF-7, IC50 (0.95 µM), 24 h. The method, then: To further study the root for cytotoxic activity of compound 7k, Annexin V-FITC/PI assay method^40, 41 was used to investigate its capability to induce apoptosis.
Apoptosis was determined by flow cytometry based on the Annexin-V-fluoresce in isothiocyanate (FITC) and propidium iodide (PI) staining kit (BD Pharmingen, San Diego, USA) See Appendix A.
Apoptosis was determined by flow cytometry based on the Annexin-V-fluoresce in isothiocyanate (FITC) and propidium iodide (PI) staining kit (BD Pharmingen, San Diego, USA.^15^,1^6 […] Apoptotic cells were defined as Annexin-V-positive. […] Treated cells were trypsinized, washed twice with PBS and transferred into micro centrifuge tubes for centrifugation at1000 rpm for 5 min at room temperature, then resuspended in binding buffer, 5 μL of FITC and PI were added to per eppendorf tube, cells were vortexed, incubated for 15 min at room temperature in dark. Subsequently, cells were analyzed by flow cytometry (Becton Dickinson, Franklin Lakes, and USA).

Protocol for BAX in MCF-7: All reagents were brought to room temperature for at least 30 min before opening (except the human BAX-α Standard). Human BAX-α Standard solution was not be left at room temperature for more than 10 min. Duplicates of all standards, controls, and samples were run. The Assay Layout Sheet was used to determine the number of wells to be used, and any remaining wells were put with the desiccant back into the pouch, and the ziplock was sealed. Unused wells were stored at 4 ◦C. A total of 100 µL of Assay Buffer was pipetted into the S0 (0 pg/mL standard) wells. A total of 100 µL of Standards #1 through #6 was pipetted into the appropriate wells. A total of 100 µL of the samples was pipetted into the appropriate wells. The plate was gently tapped to mix the contents. The plate was sealed and incubated at room temperature on a plate shaker for 1 h at ~500 rpm. The contents of the wells were emptied and washed by adding 400 µL of wash solution to every well. The wash was repeated four more times for a total of five washes. After the final wash, the wells were emptied or aspirated and firmly the plate on a lint-free paper towel was tapped to remove any remaining wash buffer. A total of 100 µL of yellow antibody was pipetted into each well, except the Blank. The plate was sealed and incubated at room temperature on a plate shaker for 1 h at ~500 rpm. The contents of the wells were emptied and washed by adding 400 µL of wash solution to every well. The wash was repeated four more times for a total of five washes. After the final wash, the wells were emptied or aspirated, and the plate was firmly tapped on a lint-free paper towel to remove any remaining wash buffer. A total of 100 µL of blue Conjugate was added to each well, except the Blank. The plate was sealed and incubated at room temperature on a plate shaker for 30 min at ~500 rpm. The contents of the wells were emptied and washed by adding 400 µL of wash solution to every well. The wash was repeated four more times for a total of five washes. After the final wash, the wells were emptied or aspirated and the plate was firmly tapped on a lint-free paper towel to remove any remaining wash buffer. A total of 100 µL of Substrate Solution was pipetted into each well. It was incubated for 30 min at room temperature on a plate shaker at ~500 rpm. A total of 100 µL Stop Solution was pipetted into to each well. The plate reader was blanked against the Blank wells, and the optical density was read at 450 nm. The average net optical density (OD) bound for each standard and sample was calculated by subtracting the average Blank OD from the average OD for each standard and sample. Using linear graph paper, the Average Net OD for each standard versus BAX concentration in each standard were plotted. A straight line was approximated through the points. The concentration of BAX in the unknowns could be determined by interpolation.

As a reminder, the IC50 is the midpoint of a concentration-inhibition curve. As for `COc1cc(-c2nc3cc(-c4nnc(SCC(=O)Nc5ccc(C(=O)/C=C/c6ccc(Cl)cc6)cc5)o4)ccc3[nH]2)cc(OC)c1OC` [Compound 7v, 2-{5-[2-(3,4,5-Trimethoxyphenyl)-1 H-benzo[d]imidazol-5-yl]-1,3,4-oxadiazol-2-ylthio}-N-{4-[(E)-3-(4-chlorophenyl)acryloyl]phenyl}acetamide], in experiment [1], the IC50 is 900 ± 100 nM and the “fold more selective towards LOX-IMVI cell line” value turned out to be 97 fold.
As to `COc1ccc(-c2nc3cc(-c4nnc(SCC(=O)Nc5ccc(C(=O)/C=C/c6ccccc6)cc5)o4)ccc3[nH]2)cc1OC` [Compound 7p, 2-{5-[2-(3,4-Dimethoxyphenyl)-1 H-benzo[d]imidazol-5-yl]-1,3,4-oxadiazol-2-ylthio}-N-{4-[(E)-3-phenylacryloyl]phenyl}acetamide], the IC50 in experiment [1] turned out to be 1200 ± 100 nM.
With `COc1ccc(/C=C/C(=O)c2ccc(NC(=O)CSc3nnc(-c4ccc5[nH]c(-c6ccc(OC)cc6)nc5c4)o3)cc2)cc1` [Compound 7m, 2-{5-[2-(4-Methoxyphenyl)-1 H-benzo[d]imidazol-5-yl]-1,3,4-oxadiazol-2-ylthio}-N-{4-[(E)-3-(4-methoxyphenyl)acryloyl]phenyl}acetamide], in experiment [2], the “Caspase-8 Fold change” value amounted to 7.90 fold and the “Caspase-8 Conc” value amounted to 1.350 ng/mL. Also, in experiment [3], the “Caspase-9 Fold change” value came out at 15.00 fold and the “Caspase-9 Conc” value stood at 13.900 ng/mL. Also, in [4], the “Cytochrome C Fold change” value was 11 fold and 11.00 fold; the “Cytochrome C Conc” value is listed as 0.515 ng/mL. In experiment [5], the “Caspase-3 Fold change” value was found to be 7.20 fold and the “Caspase-3 Conc” value is given as 473.60 ± 3.50 pg/mL. Besides, in the experiment on BAX in MCF-7, the “BAX Conc” value is given as 268.200 pg/mL and the “BAX Fold change” value was 31.5 fold.
On to `COc1ccc(-c2nc3cc(-c4nnc(SCC(=O)Nc5ccc(C(=O)/C=C/c6ccc(Cl)cc6)cc5)o4)ccc3[nH]2)cc1` [Compound 7l, 2-{5-[2-(4-Methoxyphenyl)-1 H-benzo[d]imidazol-5-yl]-1,3,4-oxadiazol-2-ylthio}-N-{4-[(E)-3-(4-chlorophenyl)acryloyl]phenyl}acetamide], for which, in experiment [2], the “Caspase-8 Fold change” value is 9 fold and 9.30 fold; the “Caspase-8 Conc” value amounted to 1.570 ng/mL. Moreover, in [1], half-maximal inhibition (IC50) was put at 800 ± 100 nM and the “fold more selective towards LOX-IMVI cell line” value worked out at 111 fold. Moreover, in [3], the “Caspase-9 Fold change” value is 16 fold and 16.00 fold; the “Caspase-9 Conc” value is listed as 15.100 ng/mL. Further, the IC50 in [6] fell in the range of 1100 to 1650 nM. In experiment [4], the “Cytochrome C Fold change” value was 13 fold and 13.00 fold; the “Cytochrome C Conc” value came to 0.595 ng/mL. In addition, in experiment [5], the “Caspase-3 Fold change” value is 7.50 fold and the “Caspase-3 Conc” value was found to be 492.50 ± 4.00 pg/mL. In addition, in the experiment on BAX in MCF-7, the “BAX Conc” value was 271 pg/mL and 271.600 pg/mL; the “BAX Fold change” value is 32 fold and 32.0 fold.
`O=C(CSc1nnc(-c2ccc3[nH]c(-c4ccc(Cl)cc4)nc3c2)o1)Nc1ccc(C(=O)/C=C/c2ccc(Cl)cc2)cc1` [Compound 7g, 2-{5-[2-(4-Chlorophenyl)-1 H-benzo[d]imidazol-5-yl]-1,3,4-oxadiazol-2-ylthio}-N-{4-[(E)-3-(4-chlorophenyl)acryloyl]phenyl}acetamide] yielded a half-maximal inhibitory concentration (IC50) in [1] of 1050 ± 100 nM.
In the case of `COc1ccc(-c2nc3cc(-c4nnc(SCC(=O)Nc5ccc(C(=O)/C=C/c6ccc(Cl)cc6)cc5)o4)ccc3[nH]2)cc1OC` [Compound 7q, 2-{5-[2-(3,4-Dimethoxyphenyl)-1 H-benzo[d]imidazol-5-yl]-1,3,4-oxadiazol-2-ylthio}-N-{4-[(E)-3-(4-chlorophenyl)acryloyl]phenyl}acetamide], the IC50 in [1] amounted to 2500 ± 200 nM.
In the case of `COc1ccc(-c2nc3cc(-c4nnc(SCC(=O)Nc5ccc(C(=O)/C=C/c6ccccc6)cc5)o4)ccc3[nH]2)cc1` [Compound 7k, 2-{5-[2-(4-Methoxyphenyl)-1 H-benzo[d]imidazol-5-yl]-1,3,4-oxadiazol-2-ylthio}-N-{4-[(E)-3-phenylacryloyl]phenyl}acetamide], in experiment [2], the “Caspase-8 Fold change” value is 10 fold and 9.90 fold; the “Caspase-8 Conc” value was 1.680 ng/mL. Besides, the “percentage of cells in G2/M phase” value with MCF-7 cells [7] (control 12.22%) was found to be 3.19%. Further, the “percentage of cells in S phase” value with MCF-7 cells [7] (control 29.51%) is reported as 34.86%. The “percentage of cells in G0-G1 phase” value in the experiment on MCF-7 cells [7] (control 58.27%) is 61.95%. Besides, in experiment [3], the “Caspase-9 Fold change” value was 17 fold and 17.00 fold; the “Caspase-9 Conc” value was 15.900 ng/mL. Also, the 50% inhibitory concentration (IC50) in [6] lay in the range of 950 to 1400 nM. Moreover, in experiment [4], the “Cytochrome C Fold change” value was 14 fold and 14.00 fold; the “Cytochrome C Conc” value amounted to 0.660 ng/mL. In addition, in the experiment with MCF-7 cells [8], the early apoptosis is listed as 28.71%, the late apoptosis was 12.63% and the necrosis came out at 3.05%. Besides, in [5], the “Caspase-3 Fold change” value is 8 fold and 7.60 fold; the “Caspase-3 Conc” value is 501.60 ± 4.00 pg/mL. In the experiment on BAX in MCF-7, the “BAX Conc” value is 279.50 pg/mL and 279.500 pg/mL; the “BAX Fold change” value is 33 fold and 33.0 fold.
